Test results as given in US12421225B2, “Heteroaromatic amide derivative and medicament containing the same” (KAKEN PHARMACEUTICAL CO., LTD., priority 2018, dated 2025).
Where a name gives a salt, the structure may show the parent alone.

Key:
[1] = biological target: human Nav1.7 (Homo sapiens (Human), UniProt Q15858); assay: Human Nav1.7 inhibitory activity evaluation (automated patch clamp QPatch16X, HEK293A cells stably expressing human Nav1.7 and human Navβ1); format: cell-based
Summary of the method: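 IC50 calculated from the concentration-response of inward current evoked by the second −10 mV, 50 ms depolarisation, which follows a 15 s conditioning step at roughly 30-40% inactivation and a 100 ms −120 mV interval. Cells: HEK293A expressing human Nav1.7/Navβ1, automated patch clamp, room temperature, 0.1% DMSO final.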

[2] = biological target: human Nav1.5 (Homo sapiens (Human), UniProt Q14524); assay: Human Nav1.5 inhibitory activity evaluation (automated patch clamp QPatch16X, HEK293 cells stably expressing human Nav1.5); format: cell-based
human Nav1.5, sequence (Q14524 whole entry): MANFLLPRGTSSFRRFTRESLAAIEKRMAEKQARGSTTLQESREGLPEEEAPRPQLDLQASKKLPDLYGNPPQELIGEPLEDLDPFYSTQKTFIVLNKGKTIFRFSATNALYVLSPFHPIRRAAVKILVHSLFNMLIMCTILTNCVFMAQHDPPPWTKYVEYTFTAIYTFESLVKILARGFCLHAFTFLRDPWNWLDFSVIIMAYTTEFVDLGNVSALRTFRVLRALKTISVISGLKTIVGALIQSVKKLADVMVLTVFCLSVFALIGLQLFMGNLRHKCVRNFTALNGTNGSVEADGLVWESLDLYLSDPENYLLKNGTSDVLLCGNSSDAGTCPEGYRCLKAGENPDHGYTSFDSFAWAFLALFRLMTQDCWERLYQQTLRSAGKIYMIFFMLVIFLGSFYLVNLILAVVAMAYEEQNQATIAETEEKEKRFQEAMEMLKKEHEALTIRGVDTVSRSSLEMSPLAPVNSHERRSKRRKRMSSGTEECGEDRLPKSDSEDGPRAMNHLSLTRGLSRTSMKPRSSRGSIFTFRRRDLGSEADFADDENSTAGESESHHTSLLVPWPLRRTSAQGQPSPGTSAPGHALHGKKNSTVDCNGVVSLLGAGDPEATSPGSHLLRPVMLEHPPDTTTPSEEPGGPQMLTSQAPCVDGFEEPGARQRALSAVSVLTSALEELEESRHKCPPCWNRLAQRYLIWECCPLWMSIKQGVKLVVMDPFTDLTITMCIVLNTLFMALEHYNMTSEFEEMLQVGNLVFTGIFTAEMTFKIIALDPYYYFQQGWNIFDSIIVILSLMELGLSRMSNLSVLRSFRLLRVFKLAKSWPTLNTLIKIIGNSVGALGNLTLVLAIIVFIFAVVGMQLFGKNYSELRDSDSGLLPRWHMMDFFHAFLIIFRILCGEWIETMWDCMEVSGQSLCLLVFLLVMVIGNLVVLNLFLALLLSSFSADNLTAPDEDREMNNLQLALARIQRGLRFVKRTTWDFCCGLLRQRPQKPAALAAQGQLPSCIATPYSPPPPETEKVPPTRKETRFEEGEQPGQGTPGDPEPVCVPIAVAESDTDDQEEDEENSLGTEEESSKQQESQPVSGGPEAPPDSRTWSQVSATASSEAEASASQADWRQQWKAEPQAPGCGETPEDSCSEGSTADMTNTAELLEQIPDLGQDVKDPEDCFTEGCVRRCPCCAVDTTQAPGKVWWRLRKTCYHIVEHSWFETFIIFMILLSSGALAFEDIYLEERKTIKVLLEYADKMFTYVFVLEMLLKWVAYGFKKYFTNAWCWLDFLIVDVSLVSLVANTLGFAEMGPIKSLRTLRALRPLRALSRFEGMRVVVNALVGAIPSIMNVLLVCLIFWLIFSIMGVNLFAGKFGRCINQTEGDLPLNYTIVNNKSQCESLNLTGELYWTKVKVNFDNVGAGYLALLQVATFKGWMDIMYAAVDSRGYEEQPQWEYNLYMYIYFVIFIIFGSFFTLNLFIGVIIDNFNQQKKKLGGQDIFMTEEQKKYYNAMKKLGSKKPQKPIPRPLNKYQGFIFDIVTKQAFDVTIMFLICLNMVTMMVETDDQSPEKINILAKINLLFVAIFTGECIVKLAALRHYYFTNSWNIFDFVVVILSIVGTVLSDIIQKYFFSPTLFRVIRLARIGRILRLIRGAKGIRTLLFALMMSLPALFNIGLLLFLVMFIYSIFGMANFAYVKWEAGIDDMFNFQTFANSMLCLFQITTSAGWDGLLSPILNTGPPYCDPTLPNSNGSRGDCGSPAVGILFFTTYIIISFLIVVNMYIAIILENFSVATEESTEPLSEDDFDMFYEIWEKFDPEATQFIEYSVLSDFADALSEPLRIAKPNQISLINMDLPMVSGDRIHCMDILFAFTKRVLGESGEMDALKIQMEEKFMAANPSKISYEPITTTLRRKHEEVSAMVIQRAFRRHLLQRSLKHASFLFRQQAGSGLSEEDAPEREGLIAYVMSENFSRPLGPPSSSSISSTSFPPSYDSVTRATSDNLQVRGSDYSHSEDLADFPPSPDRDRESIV
Summary of the method: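 IC50 derived from concentration-response of inward current at the 20th of 20 action-potential-mimicking pulses (holding −80 mV, leak corrected with −100 mV step). HEK293 cells stably expressing human Nav1.5, room temperature, extracellular pH 7.4, intracellular CsF-based pH 7.3, 0.1% DMSO.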

[3] = test system: male ICR mice; assay: Effect on acute pain (capsaicin-induced pain-related behavior, hind paw); format: in vivo
Protocol: Test Example 3: Effect on Acute Pain
Six-week old male ICR mice were used for the test. Test compounds were orally administered at 1-10 mg/kg and the mice were habituated to a clear observation cage for 60 minutes. The mice were lightly restrained under no anesthesia and 20 μL of 80 μg/mL (0.8% ethanol-saline) capsaicin solution was injected subcutaneously into the plantar surface of rihgt hind paw of mice. The mice were returned to the observation cage and, from just after that, the duration of pain-related behavior (licking, shaking) occurring in the right hind limb was measured as the reaction time for 5 minutes.
The inhibition rate of the test compound was determined by the following calculation formula. Test compound inhibition rate (%)=100×[1−(response time of test compound administered group/response time of vehicle control group)]

[4] = HEK293A cells stably expressing human Nav1.7 and human Navβ1, automated patch clamp QPatch16X
[5] = HEK293 cells stably expressing human Nav1.5, automated patch clamp QPatch16X
[6] = human Nav1.5, automated patch clamp
[7] = human Nav1.7, automated patch clamp

human Nav1.7, sequence (Q15858 whole entry): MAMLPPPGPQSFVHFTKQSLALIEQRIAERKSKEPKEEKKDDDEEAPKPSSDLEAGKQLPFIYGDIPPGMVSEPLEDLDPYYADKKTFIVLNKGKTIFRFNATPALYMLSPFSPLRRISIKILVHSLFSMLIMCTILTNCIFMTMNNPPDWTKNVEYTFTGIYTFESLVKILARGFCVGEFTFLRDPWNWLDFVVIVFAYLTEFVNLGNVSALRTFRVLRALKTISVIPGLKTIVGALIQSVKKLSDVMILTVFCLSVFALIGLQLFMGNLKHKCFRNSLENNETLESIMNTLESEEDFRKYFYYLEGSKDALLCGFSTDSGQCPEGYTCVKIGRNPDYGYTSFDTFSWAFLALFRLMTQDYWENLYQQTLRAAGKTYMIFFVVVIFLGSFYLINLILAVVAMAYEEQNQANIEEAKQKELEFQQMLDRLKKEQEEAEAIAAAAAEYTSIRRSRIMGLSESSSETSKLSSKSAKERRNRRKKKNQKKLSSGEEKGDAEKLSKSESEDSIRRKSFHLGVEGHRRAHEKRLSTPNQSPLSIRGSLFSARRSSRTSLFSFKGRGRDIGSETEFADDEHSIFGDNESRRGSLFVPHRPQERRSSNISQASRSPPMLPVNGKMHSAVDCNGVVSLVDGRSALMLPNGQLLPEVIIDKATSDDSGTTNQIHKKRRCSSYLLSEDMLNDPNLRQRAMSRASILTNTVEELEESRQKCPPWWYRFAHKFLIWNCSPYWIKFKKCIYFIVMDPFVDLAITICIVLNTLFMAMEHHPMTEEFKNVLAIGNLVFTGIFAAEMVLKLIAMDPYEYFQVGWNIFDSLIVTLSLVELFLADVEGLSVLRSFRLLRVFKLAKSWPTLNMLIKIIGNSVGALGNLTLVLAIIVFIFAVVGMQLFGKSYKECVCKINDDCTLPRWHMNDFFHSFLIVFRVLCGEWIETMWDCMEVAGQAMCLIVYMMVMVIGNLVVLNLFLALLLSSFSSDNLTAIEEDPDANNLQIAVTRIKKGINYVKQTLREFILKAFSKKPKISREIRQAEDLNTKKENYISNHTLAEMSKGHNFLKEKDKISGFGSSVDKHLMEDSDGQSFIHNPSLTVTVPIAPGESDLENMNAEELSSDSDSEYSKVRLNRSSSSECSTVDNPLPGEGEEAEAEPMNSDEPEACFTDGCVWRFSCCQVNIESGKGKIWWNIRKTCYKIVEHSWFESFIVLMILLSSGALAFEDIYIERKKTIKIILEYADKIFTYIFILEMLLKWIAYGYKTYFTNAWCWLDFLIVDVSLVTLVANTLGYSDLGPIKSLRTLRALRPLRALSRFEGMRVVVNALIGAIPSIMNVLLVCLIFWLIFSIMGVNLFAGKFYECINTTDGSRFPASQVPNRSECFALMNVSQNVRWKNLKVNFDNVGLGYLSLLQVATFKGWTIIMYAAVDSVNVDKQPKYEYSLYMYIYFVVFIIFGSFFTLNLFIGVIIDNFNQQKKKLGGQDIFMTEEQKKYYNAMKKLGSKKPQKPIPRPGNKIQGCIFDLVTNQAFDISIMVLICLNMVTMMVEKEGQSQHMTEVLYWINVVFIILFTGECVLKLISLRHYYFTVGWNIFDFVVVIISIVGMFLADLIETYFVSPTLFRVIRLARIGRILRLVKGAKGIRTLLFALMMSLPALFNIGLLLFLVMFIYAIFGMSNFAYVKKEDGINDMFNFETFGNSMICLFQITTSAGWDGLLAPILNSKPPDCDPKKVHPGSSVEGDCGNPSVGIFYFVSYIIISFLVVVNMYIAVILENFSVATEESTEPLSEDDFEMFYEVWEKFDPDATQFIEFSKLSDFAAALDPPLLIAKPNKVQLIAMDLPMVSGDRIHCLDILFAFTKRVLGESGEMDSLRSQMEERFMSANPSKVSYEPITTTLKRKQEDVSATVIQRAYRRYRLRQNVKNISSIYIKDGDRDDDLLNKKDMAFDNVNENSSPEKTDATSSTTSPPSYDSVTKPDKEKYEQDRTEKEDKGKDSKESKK
human Nav1.7, sequence (Q07699 19-218 partner): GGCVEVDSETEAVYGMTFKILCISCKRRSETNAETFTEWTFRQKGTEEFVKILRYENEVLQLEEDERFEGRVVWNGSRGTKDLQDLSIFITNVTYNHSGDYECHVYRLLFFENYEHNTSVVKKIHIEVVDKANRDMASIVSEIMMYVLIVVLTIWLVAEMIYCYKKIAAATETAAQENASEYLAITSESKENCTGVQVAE

How did the IC50 [1, 4] turn out when `O=C(N[C@H]1COc2ccccc2C1)c1cn2c(n1)CCC(OCC(F)(F)F)C2` (stereo partly drawn) [Example 37, N—((R)-chroman-3-yl)-6-(2,2,2-trifluoroethoxy)-5,6,7,8-tetrahydroimidazo[1,2-a]pyridine-2-carboxamide] was run?
Its IC50 is less than 10000 nM.

And the IC50 [2, 5]?
The IC50 was no less than 3000 nM.

What about the “Inhibition rate (%)” value [3] of the same molecule?
Its value is “B (compounds with an inhibition rate of 20% or more and less than 30% are indicated by the letter “B”)”.

`N#Cc1ccc2c(c1)C[C@@H](NC(=O)c1cc3n(n1)CCC(CCOC(F)(F)F)O3)CO2` (single isomer, unassigned) [144 (isomer B)] was tested. Which IC50 [2, 6] did it give?
The IC50 was no less than 3000 nM.

And the “Inhibition rate (%)” value [3]?
The value was “A (Compounds with an inhibition rate of 30% or more are indicated by the letter “A”)”.

With `CCC1CCn2nc(C(=O)N[C@H]3COc4ccc(C#N)cc4C3)cc2O1` (single isomer, unassigned) [Example 92 (isomer B)] as the molecule, how does the “Inhibition rate (%)” value [3] read?
Its value is “A (Compounds with an inhibition rate of 30% or more are indicated by the letter “A”)”.

`Cn1ccc(-c2ccc3c(c2)C[C@@H](NC(=O)c2cc4n(n2)CC(CCOC(F)(F)F)O4)CO3)n1` (single isomer, unassigned) [213 (isomer B)] was tested. Which “Inhibition rate (%)” value [3] did it give?
The value was “B (compounds with an inhibition rate of 20% or more and less than 30% are indicated by the letter “B”)”.

Which “Inhibition rate (%)” value [3] does the source give for `O=C(N[C@H]1COc2ccc(Cl)cc2C1)c1cn2c(n1)CCC(C(F)(F)F)C2` (single isomer, unassigned; isomer a) [Example 288, hydrochloride] here?
Its value is “A (Compounds with an inhibition rate of 30% or more are indicated by the letter “A”)”.

Which results are given for `O=C(NC1COc2cccc(OC(F)(F)F)c2C1)c1cc2n(n1)CCC(c1ccccc1)O2` (centres unmarked) [Example 78]?
IC50 [1, 4]: < 10000 nM; IC50 [2, 5]: ≥ 3000 nM

Which results are given for `CC1(C)CCn2nc(C(=O)N[C@H]3COc4ccc(C#N)cc4C3)cc2O1` [Example 178]?
IC50 [1, 7]: < 10000 nM; IC50 [2, 6]: ≥ 3000 nM

What does the source list for `O=C(N[C@H]1COc2ccc(Cl)cc2C1)c1cc2n(n1)CCC(C(F)(F)F)O2` (some centres unmarked) [Example 169]?
IC50 [1, 7]: < 1000 nM; IC50 [2, 6]: 1000 to 3000 nM

Which results are given for `COCc1ccc2c(c1)C[C@@H](NC(=O)c1cc3n(n1)CCC(c1ccccc1F)O3)CO2` (some centres unmarked) [Example 361]?
IC50 [1, 7]: < 1000 nM; IC50 [2, 6]: ≥ 3000 nM

How did the IC50 [1, 4] turn out when `O=C(N[C@H]1COc2ccccc2C1)c1cn2c(n1)CCC(C1(F)CCC1)C2` (some centres unmarked) [Example 35] was run?
The IC50 was less than 1000 nM.

What about the IC50 [2, 5] of the same molecule?
The IC50 was 1000 to 3000 nM.

With `O=C(N[C@H]1COc2ccccc2C1)c1cn2c(n1)CCC(COc1ccccc1)C2` (some centres unmarked) [Example 33] as the molecule, how does the IC50 [1, 4] read?
Its IC50 is less than 1000 nM.

What about the IC50 [2, 5] of the same molecule?
The IC50 was 1000 to 3000 nM.

How did the IC50 [1, 4] turn out when `CCOCC1CCn2nc(C(=O)N[C@H]3COc4ccc(-c5ccccn5)cc4C3)cc2O1` (single isomer, unassigned) [124 (isomer A)] was run?
The IC50 was less than 1000 nM.

What about the IC50 [2, 5] of the same molecule?
The IC50 was no less than 3000 nM.

With `N#Cc1ccc2c(c1)C[C@@H](NC(=O)c1cc3n(n1)CCN(CC(F)(F)C(F)(F)F)C3)CO2` [Example 489] as the molecule, how does the IC50 [1, 7] read?
The IC50 was less than 10000 nM.

What about the IC50 [2, 6] of the same molecule?
The IC50 was no less than 3000 nM.

What does the source list for `O=C(N[C@H]1COc2ccccc2C1)c1cc2n(n1)CC(c1ccccc1)O2` (some centres unmarked) [Example 181]?
IC50 [1, 7]: < 1000 nM; IC50 [2, 6]: ≥ 3000 nM

For `O=C(N[C@H]1COc2ccccc2C1)c1cn2c(n1)COC(c1ccccc1)C2` (some centres unmarked) [Example 340], which IC50 [1, 7] is on record?
The IC50 was less than 10000 nM.

What about the IC50 [2, 6] of the same molecule?
Its IC50 is no less than 3000 nM.

Which results are given for `N#CC1(COCC2CCn3nc(C(=O)N[C@H]4COc5ccc(C(F)(F)F)cc5C4)cc3O2)CC1` (single isomer, unassigned) [554 (isomer A)]?
IC50 [1, 7]: < 1000 nM; IC50 [2, 6]: ≥ 3000 nM

Which IC50 [1, 4] does the source give for `C[C@H]1CCn2nc(C(=O)N[C@H]3COc4ccc(Cl)cc4C3)cc2O1` [Example 86] here?
The IC50 was less than 1000 nM.

And the IC50 [2, 5]?
The IC50 was no less than 3000 nM.

Which results are given for `CN1Cc2nc(C(=O)NCCc3cccc(OCC4CCOCC4)c3)cn2CC1c1ccccc1` (centres unmarked) [Example 327]?
IC50 [1, 7]: < 10000 nM; IC50 [2, 6]: ≥ 3000 nM

Which results are given for `O=C(N[C@H]1COc2ccc(C(F)(F)F)cc2C1O)c1cc2n(n1)CCN(CCC1CC1)C2` (some centres unmarked) [Example 593]?
IC50 [1, 7]: < 10000 nM; IC50 [2, 6]: 1000 to 3000 nM

For `O=C(N[C@H]1COc2ccc(COCC(F)(F)F)cc2C1)c1cc2n(n1)CC(CC1CCOCC1)O2` (single isomer, unassigned) [622 (isomer A)], which IC50 [1, 7] is on record?
Its IC50 is less than 1000 nM.

And the IC50 [2, 6]?
Its IC50 is no less than 3000 nM.
